Measurements taken from patent US20020007663A1, “Method of introducing an in situant into a vapor compression system, especially useful for leak detection, as well as an apparatus for leak detection and a composition useful for leak detection” (Mainstream Engineering Corporation, priority 1997, published 2002).
Like-named read-outs stand apart in the source and are kept apart here.

Assay: solubility of fluorescent in situants in POE oils, alcohols, AB oil and mineral oil
Conditions: for solubility in POE oil: two different POE oils
Method: We have measured the solubility of several fluorescent and daylight-visible in situants in various POE oils and prepared solutions comprised solely of the POE carrier fluid (i.e., no alcohol in the carrier fluid) and these in situants. An example composition is 30 wt. % N-phenyl-1-naphthylamine and 70 wt. % POE oil. […] For example, a composition was prepared with 30 wt. % N-phenyl-1-naphthylamine, 1 wt. % 7-diethylamino-4-methylcoumarin (coumarin 1) and 69 wt. % POE oil. […] The preferred final composition of the fluorescing or daylight visible in situant in the system oil will be below the solubility limits.

[1] = POE oil or alcohols, qualitative

## c1ccc2c(c1)Nc1ccccc1S2 [phenothiazine]
[1]
  soluble in POE oil or alcohols: soluble

## c1ccc(Nc2cccc3ccccc23)cc1 [N-phenyl-1-naphthylamine]
AB oil
  solubility in AB oil: about 10 weight percent
  solubility in alcohols: 20-30%
  solubility in POE oil: 20-30 % by wt.
Mineral oil
  solubility in mineral oil: ~3 weight percent

## O=C1c2cccc(O)c2C(=O)c2cccc(O)c21 [anthrarufin]
  soluble in POE oil or alcohols: soluble

## O=C1c2ccccc2C(=O)c2c(O)c(O)cc(O)c21 [purpurin]
  soluble in POE oil or alcohols: soluble

## c1ccc(N=Nc2ccc(Nc3ccccc3)cc2)cc1 [4-(phenylazo)-diphenylamine]
  soluble in POE oil or alcohols: soluble

## Oc1ccc2nc(-c3nc4ccccc4s3)sc2c1 [2′-(2-benzothiazolyl)-6′-hydroxybenzothiazole]
  soluble in POE oil or alcohols: soluble

## c1ccc(Nc2ccccc2)cc1 [diphenylamine]
  soluble in POE oil or alcohols: soluble

## primuline
  soluble in POE oil or alcohols: soluble

## c1ccc(Nc2ccc3ccccc3c2)cc1 [N-phenyl-2-naphthylamine]
[1]
  soluble in POE oil or alcohols: soluble
  solubility in alcohols: 1-6%
  solubility in POE oil: about 5 % by wt.

## NC(=O)c1nc2ccc(O)cc2s1 [2-carbamoyl-6-hydroxybenzothiazole]
  soluble in POE oil or alcohols: soluble

## Cc1ccc2nc(-c3ccc(N=NNc4ccc(-c5nc6ccc(C)c(S(=O)(=O)[O-])c6s5)cc4)cc3)sc2c1S(=O)(=O)[O-].[Na+].[Na+] [thiazole yellow G]
  soluble in POE oil or alcohols: soluble

## O=C1c2ccc(O)c(O)c2C(=O)c2c(O)ccc(O)c21 [quinalizarin]
  soluble in POE oil or alcohols: soluble
